Each structure is given as a SMILES string. The source made the active and inactive calls. Bounds are passed on as bounds.

The source of these data is ChEMBL document CHEMBL1201862, “PubChem BioAssay data set” (2004).

Assay [1] can be described thus: AlphaScreen signal interference compounds, dose response, artefact control for ARNT-TACC3 interaction inhibitor project, biochemical, luminescence, cherry-pick (AID 651705).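 Also: AlphaScreen bead proximity signal that flags compounds interfering with the detection technology; potency reflects signal decrease which marks the compound as an assay artifact.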 Format: functional.
The nature of assay [2]: cells. The format is functional, cell-based.
A short description of assay [3]: cells. The format is functional, cell-based. The source holds these as a separate data set.
The test system of another assay is INS1. The assay can be described thus: beta cell apoptosis inhibitors, cytokine rescue, dose response, luminescence, retest (AID 449756).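 Also: cell death triggered by IL-1 beta plus TNF-alpha plus IFN-gamma mixture; protective hits raise ATP signal compared with cytokine alone wells.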 The format is functional, cell-based. Conditions: Rattus norvegicus.
Another assay addresses Nonstructural protein 1 (Influenza A virus, UniProt Q194T2). The format is functional, Influenza A virus (A/California/07/2009(H1N1)).
For assay [4], the target named is Beta-lactamase (Salmonella choleraesuis (strain SC-B67), UniProt Q5J463). The experiment in a line: Epi-absorbance-based counterscreen for selective VIM-2 inhibitors: dose response biochemical high throughput screening assay to identify inhibitors of TEM-1 serine-beta-lactamase.
Assay [5] addresses T1, Beta-lactamase (Pseudomonas aeruginosa, UniProt Q79MP6). The assay can be described thus: IMP-1 metallo-beta-lactamase inhibitors, dose response, selectivity assay for VIM-2 inhibitor project, biochemical, epi-absorbance (AID 1920).
In assay [6] the target is T1, Beta-lactamase. The experiment in a line: […] counterscreen for selective VIM-2 inhibitors: dose response biochemical high throughput screening assay to identify inhibitors of IMP-1 metallo-beta-lactamase.
Assay [7] has as its target Fructose-bisphosphate aldolase (Mycobacterium tuberculosis, UniProt P9WQA3). The experiment in a line: Fluorescence-based biochemical high throughput dose response assay for inhibitors of the fructose-bisphosphate aldolase (FBA) of M. tuberculosis. Format: functional.
Assay [8] has as its target T2, Oxysterols receptor LXR-beta (Homo sapiens, UniProt P55055).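 Also: agonist activity at LXR measured by a cell-based luminescence readout across a dose range, run as a counterscreen for daf-12 agonists; HEK293 cells with Gal4-LXR fusion and GAL4-driven luciferase reporter; potency for activation of Gal4-LXR reporter so compounds are agonists.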
T2 sequence (P55055 whole entry): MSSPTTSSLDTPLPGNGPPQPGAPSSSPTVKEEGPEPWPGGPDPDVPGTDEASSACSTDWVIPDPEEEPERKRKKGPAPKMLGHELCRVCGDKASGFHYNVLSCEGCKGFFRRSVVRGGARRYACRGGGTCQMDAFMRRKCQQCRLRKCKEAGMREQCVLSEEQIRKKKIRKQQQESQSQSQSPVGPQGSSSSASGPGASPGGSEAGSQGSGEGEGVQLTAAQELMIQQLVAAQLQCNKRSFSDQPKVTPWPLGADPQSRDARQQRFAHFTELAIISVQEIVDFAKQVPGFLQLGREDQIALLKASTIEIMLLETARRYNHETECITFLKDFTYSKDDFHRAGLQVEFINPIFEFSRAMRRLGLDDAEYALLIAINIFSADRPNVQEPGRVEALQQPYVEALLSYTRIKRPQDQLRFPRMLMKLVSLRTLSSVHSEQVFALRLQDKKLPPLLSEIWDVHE
The format is functional, cell-based.

Assay [9] can be described thus: cytotoxicity toward NIH3T3 fibroblasts, dose response, counter-screen, cell-based, ATP luminescence, mouse fibroblasts (AID 2010).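 Also: cells exposed to compound for about 90 hours before reading.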 Format: functional.
For a further assay, the target named is Paired box protein Pax-8 (Homo sapiens, UniProt Q06710). The assay can be described thus: inhibitors of PAX8-driven TPO luciferase reporter, dose response, RMG-I cells, cherry-pick (AID 687027).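 Also: luciferase reporter driven by Pax8 target thyroperoxidase promoter measured by SteadyGlo luminescence.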 Format: functional, cell-based.
Assay [10] in a line: NIH-3T3 fibroblast cytotoxicity, dose response, cytotoxicity control, cell-based, fluorescence, Alamar Blue, secondary assay (AID 2327).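 Also: NIH-3T3 mouse fibroblasts cultured with fluconazole at 8 µg/mL.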 The format is functional.
For assay [11], the target named is Induced myeloid leukemia cell differentiation protein Mcl-1 (Homo sapiens, UniProt Q07820). Format: functional.
Assay [12] deals with Histone-lysine N-methyltransferase NSD2 (Homo sapiens, UniProt O96028). The format is biochemical.
Assay [13] can be described thus: C. albicans growth with fluconazole, confirmation, fluorescence, retest (AID 2467). The format is functional, cell-based.
Assay [14] is described as follows: inhibitors of intracellular T. cruzi replication, confirmation, NIH3T3 host cells, beta-gal luminescence (AID 2044).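 Also: intracellular parasites grown in NIH/3T3 mouse fibroblasts as host cells; luminescent beta-galactosidase reporter signal from transgenic T. cruzi replicating inside host cells; inhibitors lower the luminescence signal.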 The format is functional, cell-based.
The target in assay [15] is Eukaryotic translation initiation factor 4E (Mus musculus, UniProt P63073). The experiment in a line: eIF4E–eIF4G protein interaction inhibitors, dose response, biochemical, TR-FRET (AID 855).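 Also: potency for disrupting eIF4E binding to eIF4GI seen as loss of FRET.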 The format is functional.
The nature of assay [16]: cells. Format: functional, cell-based. This is another data set of the same source.
The target in assay [17] is T3, Nuclear receptor subfamily 0 group B member 1 (Homo sapiens, UniProt P51843).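 Also: HEK293T cells transfected with SF-1 and DAX-1 plus StAR promoter luciferase reporter.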
T3 sequence (P51843 whole entry): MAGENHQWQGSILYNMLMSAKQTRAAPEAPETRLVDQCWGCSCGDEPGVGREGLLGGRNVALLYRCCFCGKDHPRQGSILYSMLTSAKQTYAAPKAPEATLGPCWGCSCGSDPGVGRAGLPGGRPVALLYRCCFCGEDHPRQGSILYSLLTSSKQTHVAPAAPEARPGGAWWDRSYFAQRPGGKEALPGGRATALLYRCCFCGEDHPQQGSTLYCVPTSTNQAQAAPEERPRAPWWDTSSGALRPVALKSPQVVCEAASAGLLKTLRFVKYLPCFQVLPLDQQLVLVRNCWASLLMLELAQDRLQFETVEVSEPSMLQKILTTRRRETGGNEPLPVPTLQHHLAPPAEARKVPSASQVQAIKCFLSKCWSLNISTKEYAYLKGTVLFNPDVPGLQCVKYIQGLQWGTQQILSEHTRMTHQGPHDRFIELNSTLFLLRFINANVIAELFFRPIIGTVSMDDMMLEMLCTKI
The format is functional, cell-based.

The nature of assay [18]: ADAM10 inhibitors, peptide cleavage, dose response, biochemical, QFRET (AID 743254).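 Also: ADAM10 enzyme with the DM2 quenched FRET peptide as substrate; EDANS fluorescence gain as the protease cuts the substrate; inhibitor potency against ADAM10 proteolytic activity.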
Assay [19] deals with Disintegrin and metalloproteinase domain-containing protein 17 (Homo sapiens, UniProt P78536). The assay can be described thus: ADAM17 protease inhibitors, dose response, counter-screen for ADAM10 exosite inhibitor project, biochemical, quenched FRET substrate (AID 743253).
Assay [20] can be described thus: A549 cell cytotoxicity, dose response, cytotoxicity control, plate reader, cherry-pick, antagonist series (AID 743412). The format is functional, cell-based.
Assay [21] in a line: LGR2 antagonists, dose response, cell-based, HEK293, CRE-luciferase reporter, cherry pick, set 2 (AID 743343).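 Also: transfected cells were stimulated with diluted bursicon conditioned medium after compound addition.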 Format: functional.
The nature of assay [22]: HepG2 cell cytotoxicity, dose response, cytotoxicity control, plate reader, cherry-pick, antagonist series (AID 743416). The format is functional, cell-based.
Assay [23] is described as follows: MC4R antagonists, dose response, counter-screen for LGR2 antagonist project, cell-based, plate reader, cherry pick (AID 743444).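 Also: transfected HEK 293 cells stimulated with alpha-MSH peptide; potency of inhibitors of the alpha-MSH evoked signal.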 The format is functional.
Assay [24] is described as follows: HEK293 cell cytotoxicity, dose response, cytotoxicity control, plate reader, cherry-picked samples (AID 743446). Format: functional, cell-based.
Assay [25] can be described thus: HEK293T cytotoxicity, dose response, cytotoxicity control for miR-122 modulator project, cell-based, activator set, cherry-pick (AID 720690).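 Also: HEK293T human cells scored for general mammalian cytotoxicity.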 Format: functional.
The nature of assay [26]: miR-122 activators in hepatoma reporter cells, dose response, cell-based, Huh7 psiCHECK-miR122, Renilla luciferase, cherry-picked (AID 651956).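 Also: huh7 hepatoma cells stably carrying a psiCHECK-2 miR-122 sensor plasmid; renilla luciferase signal reporting endogenous miR-122 activity after 48 h compound exposure.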 Format: functional.
The nature of assay [27]: HEK293T cytotoxicity, dose response, cytotoxicity control for miR-122 modulator project, cell-based, inhibitor set, cherry-pick, set 2 (AID 720697). Format: functional.

T1 sequence (Q79MP6 whole entry): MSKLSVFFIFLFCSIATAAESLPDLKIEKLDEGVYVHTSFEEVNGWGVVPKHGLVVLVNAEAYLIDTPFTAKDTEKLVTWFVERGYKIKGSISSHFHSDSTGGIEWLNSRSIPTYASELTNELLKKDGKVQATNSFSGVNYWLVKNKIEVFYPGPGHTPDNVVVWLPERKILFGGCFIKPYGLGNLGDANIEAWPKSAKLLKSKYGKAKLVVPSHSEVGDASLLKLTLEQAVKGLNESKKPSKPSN
Disintegrin and metalloproteinase domain-containing protein 17, sequence (P78536 whole entry, the tested form may be a part): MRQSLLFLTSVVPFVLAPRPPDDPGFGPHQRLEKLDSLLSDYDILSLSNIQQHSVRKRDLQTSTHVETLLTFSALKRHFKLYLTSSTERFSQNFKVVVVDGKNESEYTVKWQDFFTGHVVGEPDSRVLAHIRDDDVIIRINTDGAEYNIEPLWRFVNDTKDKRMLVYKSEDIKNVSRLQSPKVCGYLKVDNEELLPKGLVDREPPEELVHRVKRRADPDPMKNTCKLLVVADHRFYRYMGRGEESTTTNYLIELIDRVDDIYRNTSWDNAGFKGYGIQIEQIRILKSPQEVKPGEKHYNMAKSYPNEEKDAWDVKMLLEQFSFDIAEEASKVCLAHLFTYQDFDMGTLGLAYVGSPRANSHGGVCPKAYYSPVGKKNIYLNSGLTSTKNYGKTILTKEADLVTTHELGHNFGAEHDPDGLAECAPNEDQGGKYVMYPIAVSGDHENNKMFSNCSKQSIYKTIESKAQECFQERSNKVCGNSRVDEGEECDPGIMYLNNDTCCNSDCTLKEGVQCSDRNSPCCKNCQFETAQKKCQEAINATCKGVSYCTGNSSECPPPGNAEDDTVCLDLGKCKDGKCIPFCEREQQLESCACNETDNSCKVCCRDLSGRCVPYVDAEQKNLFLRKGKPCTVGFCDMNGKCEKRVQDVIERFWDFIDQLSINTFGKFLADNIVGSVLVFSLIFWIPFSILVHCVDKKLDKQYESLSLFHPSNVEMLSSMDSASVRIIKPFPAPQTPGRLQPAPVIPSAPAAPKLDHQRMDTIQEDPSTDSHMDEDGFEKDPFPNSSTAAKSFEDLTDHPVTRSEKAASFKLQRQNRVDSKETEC
Eukaryotic translation initiation factor 4E, sequence (P63073 whole entry): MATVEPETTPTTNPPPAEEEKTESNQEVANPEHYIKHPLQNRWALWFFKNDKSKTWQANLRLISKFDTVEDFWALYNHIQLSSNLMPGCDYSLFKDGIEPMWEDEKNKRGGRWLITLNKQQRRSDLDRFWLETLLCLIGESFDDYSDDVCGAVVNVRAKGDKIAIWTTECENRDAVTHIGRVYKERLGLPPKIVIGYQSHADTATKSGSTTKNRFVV
Histone-lysine N-methyltransferase NSD2, sequence (O96028 whole entry): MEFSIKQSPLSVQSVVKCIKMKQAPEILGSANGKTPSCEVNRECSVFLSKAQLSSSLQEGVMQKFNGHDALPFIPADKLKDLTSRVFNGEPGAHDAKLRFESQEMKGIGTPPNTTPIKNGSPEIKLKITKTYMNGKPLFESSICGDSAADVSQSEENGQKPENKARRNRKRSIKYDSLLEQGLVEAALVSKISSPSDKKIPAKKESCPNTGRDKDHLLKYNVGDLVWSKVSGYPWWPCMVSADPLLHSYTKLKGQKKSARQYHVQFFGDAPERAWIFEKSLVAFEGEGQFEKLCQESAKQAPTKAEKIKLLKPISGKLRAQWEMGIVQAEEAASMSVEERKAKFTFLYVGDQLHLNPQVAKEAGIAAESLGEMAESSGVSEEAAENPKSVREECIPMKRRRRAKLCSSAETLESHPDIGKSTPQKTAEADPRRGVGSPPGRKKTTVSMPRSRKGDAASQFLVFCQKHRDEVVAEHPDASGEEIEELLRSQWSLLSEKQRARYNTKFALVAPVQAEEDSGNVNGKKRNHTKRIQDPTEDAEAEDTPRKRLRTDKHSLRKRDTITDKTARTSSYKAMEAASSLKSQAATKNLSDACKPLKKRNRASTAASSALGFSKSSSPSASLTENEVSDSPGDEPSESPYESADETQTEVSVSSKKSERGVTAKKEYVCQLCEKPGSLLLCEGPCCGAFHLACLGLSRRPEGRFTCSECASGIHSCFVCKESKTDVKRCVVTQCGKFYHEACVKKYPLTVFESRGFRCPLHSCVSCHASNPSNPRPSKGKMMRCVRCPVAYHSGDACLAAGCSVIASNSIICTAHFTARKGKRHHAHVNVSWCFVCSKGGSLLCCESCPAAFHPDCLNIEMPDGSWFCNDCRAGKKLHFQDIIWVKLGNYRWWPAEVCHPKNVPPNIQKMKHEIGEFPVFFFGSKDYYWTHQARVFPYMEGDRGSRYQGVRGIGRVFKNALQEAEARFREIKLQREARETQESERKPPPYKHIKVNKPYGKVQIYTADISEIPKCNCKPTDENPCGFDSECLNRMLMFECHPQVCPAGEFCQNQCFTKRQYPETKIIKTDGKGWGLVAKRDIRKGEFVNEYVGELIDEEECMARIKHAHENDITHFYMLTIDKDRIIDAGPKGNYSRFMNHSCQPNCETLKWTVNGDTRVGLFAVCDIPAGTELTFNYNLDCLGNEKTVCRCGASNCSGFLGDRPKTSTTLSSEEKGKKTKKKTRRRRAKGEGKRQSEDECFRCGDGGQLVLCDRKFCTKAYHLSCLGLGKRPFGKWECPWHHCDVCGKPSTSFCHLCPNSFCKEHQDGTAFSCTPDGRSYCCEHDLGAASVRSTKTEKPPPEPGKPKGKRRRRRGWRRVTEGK
Paired box protein Pax-8, sequence (Q06710 whole entry): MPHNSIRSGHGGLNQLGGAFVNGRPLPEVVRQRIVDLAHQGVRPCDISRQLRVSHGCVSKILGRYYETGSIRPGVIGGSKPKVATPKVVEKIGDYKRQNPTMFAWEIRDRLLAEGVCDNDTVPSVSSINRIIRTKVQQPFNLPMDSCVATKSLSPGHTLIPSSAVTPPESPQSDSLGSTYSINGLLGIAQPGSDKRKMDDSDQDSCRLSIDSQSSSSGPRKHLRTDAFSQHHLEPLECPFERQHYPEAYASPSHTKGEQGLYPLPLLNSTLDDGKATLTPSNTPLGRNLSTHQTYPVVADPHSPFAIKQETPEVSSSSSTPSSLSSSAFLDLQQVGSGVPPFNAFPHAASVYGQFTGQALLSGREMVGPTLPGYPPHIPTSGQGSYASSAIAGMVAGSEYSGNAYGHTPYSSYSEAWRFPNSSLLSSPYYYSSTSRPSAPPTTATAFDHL
Beta-lactamase (Salmonella choleraesuis (strain SC-B67), UniProt Q5J463), sequence (Q5J463 whole entry): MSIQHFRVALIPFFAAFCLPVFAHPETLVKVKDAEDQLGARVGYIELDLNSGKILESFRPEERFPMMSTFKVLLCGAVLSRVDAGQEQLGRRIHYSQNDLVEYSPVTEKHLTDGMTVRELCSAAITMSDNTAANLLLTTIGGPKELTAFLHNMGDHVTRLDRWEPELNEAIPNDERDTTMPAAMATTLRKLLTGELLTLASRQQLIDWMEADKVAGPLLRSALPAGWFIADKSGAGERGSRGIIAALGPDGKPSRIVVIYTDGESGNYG
Fructose-bisphosphate aldolase, sequence (P9WQA3 whole entry, the tested form may be a part): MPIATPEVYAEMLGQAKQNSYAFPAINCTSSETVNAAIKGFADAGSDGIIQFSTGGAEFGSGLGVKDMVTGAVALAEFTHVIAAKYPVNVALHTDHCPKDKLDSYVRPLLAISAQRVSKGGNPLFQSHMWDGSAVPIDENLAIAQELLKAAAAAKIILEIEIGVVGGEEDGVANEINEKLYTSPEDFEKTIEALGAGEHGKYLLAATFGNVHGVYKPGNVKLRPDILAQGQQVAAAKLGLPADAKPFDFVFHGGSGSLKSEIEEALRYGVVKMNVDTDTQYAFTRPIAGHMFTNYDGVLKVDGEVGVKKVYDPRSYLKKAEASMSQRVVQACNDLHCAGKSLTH
Nonstructural protein 1, sequence (Q194T2 whole entry): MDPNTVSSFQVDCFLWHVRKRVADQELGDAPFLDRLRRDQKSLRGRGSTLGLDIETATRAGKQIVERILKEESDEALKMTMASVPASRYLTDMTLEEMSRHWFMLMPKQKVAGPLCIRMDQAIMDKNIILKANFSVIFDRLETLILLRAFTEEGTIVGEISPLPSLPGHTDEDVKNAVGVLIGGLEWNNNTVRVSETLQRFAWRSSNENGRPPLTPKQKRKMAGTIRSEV
Induced myeloid leukemia cell differentiation protein Mcl-1, sequence (Q07820 whole entry): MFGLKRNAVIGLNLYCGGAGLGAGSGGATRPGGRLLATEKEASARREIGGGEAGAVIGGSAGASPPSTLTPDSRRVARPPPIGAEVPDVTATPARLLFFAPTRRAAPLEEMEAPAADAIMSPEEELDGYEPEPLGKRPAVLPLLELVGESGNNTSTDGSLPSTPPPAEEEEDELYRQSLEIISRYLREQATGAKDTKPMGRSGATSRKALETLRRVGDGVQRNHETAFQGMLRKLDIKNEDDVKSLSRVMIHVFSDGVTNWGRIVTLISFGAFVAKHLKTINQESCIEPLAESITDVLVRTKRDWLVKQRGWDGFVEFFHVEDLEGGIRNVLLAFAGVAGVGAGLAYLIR

Consider `Cc1ncc(CO)c(/C=N/NC(=O)c2cc3c(s2)CCCC3)c1O`, for which the figures for the half-maximal activity concentration (AC50) (in assay [1]; in the assay with INS1) were 119 µM (active) and 1.89 µM (active), respectively. The figures for the concentration for a half-maximal effect (EC50) in the assay “cells [2]” and in “cells [3]” were > 350 µM (not active) and 11.4 µM (active), respectively. Besides, the IC50 at Nonstructural protein 1 is 11.9 µM (active).
For the compound `O=c1c2ccccc2cnn1Cc1nnc(S)n1C1CC2CCC1C2` (configuration not stated), the IC50 on Beta-lactamase [4], on Beta-lactamase [5] and at Beta-lactamase [6] was > 59.6 µM (inactive) in each case.
Take `Cc1oc(C)c(C(=O)Nc2ccc(CC(=O)O)cc2)c1C(=O)Nc1ccc(CC(=O)O)cc1`: in assay [7], the IC50 was > 9.99 µM (inactive).
Turning to `COc1cccc(-c2nc3ccccc3s2)c1`, the EC50 in [8] is > 67.5 µM (inactive).
Take `CN1c2ccccc2N(C)C1(C)c1ccccc1`: the EC50 was > 60 µM (not active) in assay [9], > 150 µM (inactive) in assay [10], > 38 µM (not active) in assay [13] and 0.278 µM (active) in assay [14]. Moreover, the AC50 at Paired box protein Pax-8 is 9.4 µM (active); in the assay on INS1, 0.283 µM (active); in assay [12], > 20 µM (inactive). Moreover, the IC50 was 4.95 µM (active) in assay [11] and > 64 µM (inactive) in assay [15].
For the compound `c1ccc(CSc2ccc(-c3cccs3)nn2)cc1`, the EC50 in assay [8] was > 67.5 µM (inactive).
On to `COc1cc2c(c(OC)c1OC)-c1ccc(OC)c(=O)cc1C(NC(=O)c1ccccc1)CC2` (configuration not stated), for which the IC50 (in “cells [16]”; in assay [17]) was > 67.5 µM (inactive) each time.
For `CCCCCCCCNS(=O)(=O)/C=C/c1ccccc1CNC(=O)OC(C)(C)C`, the figures for the IC50 in [18] and in [19] were > 7.73 µM (active) and > 69.6 µM (inactive), respectively.
As for `C[C@H]1CN([C@@H](C)CO)S(=O)(=O)c2ccc(C#CC(C)(C)O)cc2O[C@@H]1CN(C)Cc1ccc(-c2ccccc2)cc1`, the AC50 in assay [20] was 0.778 µM (active); in assay [21] it was 29.6 µM (active); in assay [22], 0.759 µM (active); in assay [23], 20.2 µM (active); in assay [24], 1.95 µM (active); in [25], 12.3 µM (active). The AC50 was 7.8 µM (active) in assay [26] and 10.7 µM (active) in [27].
